Measurements taken from patent US20250042879A1, “HETEROCYCLIC SUBSTITUTED 1,3,4-THIADIAZOLE AND PYRIDAZINE COMPOUNDS AND METHODS OF USING THE SAME” (Rgenta Therapeutics, Inc., priority 2021, published 2025).
Where a name gives a salt, the structure may show the parent alone.

test system: HTT; test: Mini-gene reporter assay-HTT (firefly luciferase, exon inclusion); type: cell-based; settings: HTT Minigene, 5 μM; read-out: % Efficacy at 5 μM
Excerpt: Mini-gene reporter constructs for each target site were constructed by first PCR amplifying the region-of-interest including the sequence of the alternatively skipped, sequences of the immediate upstream and downstream introns, and sequences of the immediate upstream and downstream exons. Then the 3′end of the amplified sequence was ligated to a firefly luciferase reporter gene and cloned into the pcDNA3.1 vector backbone. The final reporter construct was transiently transfected into HEK293 cells using Lipofectamine 3000 transfection reagents. Compounds that can induce the inclusion of the skipped exon in the reporter construct would increase the reporter firefly luciferase activity.
Test compounds were diluted in duplicates and dispensed into an assay plate. Transient mini-gene reporter cell line stock was resuspended and dispensed into the assay plate. Assay plates were then centrifuged and incubated. A luciferase reagent (e.g. ONE-Glo firefly luciferase reagent from Promega®) was added to the assay plate and the luminescence (RLU) signals recorded. EC50 values were determined by curve fitting in Levenberg-Marquardt algorithm.

`Cc1cn2cc(-c3ccc(-c4ccc(C5CN(Cc6cnco6)C5)nn4)c(O)c3)cc(F)c2n1` [Compound 90] and `Cc1cn2cc(-c3ccc(-c4ccc(C5CN(Cc6cn(C)cn6)C5)nn4)c(O)c3)cc(F)c2n1` [Compound 100] fall in the same range of Emax at 5 µM: 25 to 75% for the first, 25 to 75% for the second.

First: Cc1cn2cc(-c3ccc(-c4ccc(C5CN(Cc6cc(C)n(C)n6)C5)nn4)c(O)c3)cc(F)c2n1 [Compound 96]
Second: Cc1cn2cc(-c3ccc(-c4ccc(C5CN(Cc6cn(C(C)C)nn6)C5)nn4)c(O)c3)cc(F)c2n1 [Compound 116]
The Emax at 5 µM of the first is lower: less than 25% for the first, 25 to 75% for the second.

`CCn1cc(CN2CC(c3ccc(-c4ccc(-c5cc(F)c6nc(C)cn6c5)cc4O)nn3)C2)nn1` [Compound 123] and `Cc1cn2cc(-c3ccc(-c4ccc(C5CN(Cc6ccn(C)c6)C5)nn4)c(O)c3)cc(F)c2n1` [Compound 94] fall in the same range of Emax at 5 µM: 25 to 75% for the first, 25 to 75% for the second.

`COc1cc(-c2ccc(-c3ccc(C4CN(CC5(SC)CC5)C4)nn3)c(O)c2)cc2cn(C)nc12` [Compound 174] and `COc1cc(-c2ccc(-c3ccc(C4CN(C5CC(OC)C5)C4)nn3)c(O)c2)cc2cn(C)nc12` (stereo not drawn) [Compound 160] fall in the same range of Emax at 5 µM: 25 to 75% for the first, 25 to 75% for the second.

First: COc1cc(-c2ccc(-c3ccc(C4CN(Cc5cccnc5C)C4)nn3)c(O)c2)cc2cn(C)nc12 [Compound 150]
Second: COc1ccc(CN2CC(c3ccc(-c4ccc(-c5cc(OC)c6nn(C)cc6c5)cc4O)nn3)C2)cn1 [Compound 153]
The Emax at 5 µM of the first is higher: 25 to 75% for the first, less than 25% for the second.

`COc1cc(-c2ccc(-c3ccc(C4CN(C(C)C5CCOC5)C4)nn3)c(O)c2)cc2cn(C)nc12` (stereo not drawn) [Compound 151] and `COc1cc(-c2ccc(-c3ccc(C4CN(CC5CCCOC5)C4)nn3)c(O)c2)cc2cn(C)nc12` (stereo not drawn) [Compound 147] cannot be ordered by Emax at 5 µM: greater than 750% for the first, greater than 750% for the second.

`COCC(C)N1CC(c2ccc(-c3ccc(-c4cc(F)c5nc(C)cn5c4)cc3O)nn2)C1` (stereo not drawn) [Compound 84] and `CCC(COC)N1CC(c2ccc(-c3ccc(-c4cc(F)c5nc(C)cn5c4)cc3O)nn2)C1` (stereo not drawn) [Compound 92] cannot be ordered by Emax at 5 µM: greater than 750% for the first, greater than 750% for the second.

First: COc1cc(-c2ccc(-c3ccc(C4CN(CC5CC6CC6C5)C4)nn3)c(O)c2)cc2cn(C)nc12 (stereo not drawn) [Compound 185]
Second: COc1cc(-c2ccc(-c3ccc(C4CN(CC5CC=CCC5)C4)nn3)c(O)c2)cc2cn(C)nc12 (stereo not drawn) [Compound 131]
The Emax at 5 µM of the first is lower: 25 to 75% for the first, greater than 750% for the second.

`COc1cc(-c2ccc(-c3ccc(C4CN(C5CCOC6(CCC6)C5)C4)nn3)c(O)c2)cc2cn(C)nc12` (stereo not drawn) [Compound 172] and `COc1cc(-c2ccc(-c3ccc(C4CN(C5CCOC(C)C5)C4)nn3)c(O)c2)cc2cn(C)nc12` (stereo not drawn) [Compound 145] fall in the same range of Emax at 5 µM: 25 to 75% for the first, 25 to 75% for the second.

First: COc1cc(-c2ccc(-c3ccc(C4CN(Cc5cnsc5)C4)nn3)c(O)c2)cc2cn(C)nc12 [Compound 182]
Second: COCC(C)N1CC(c2ccc(-c3ccc(-c4cc(OC)c5nn(C)cc5c4)cc3O)nn2)C1 (stereo not drawn) [Compound 143]
The Emax at 5 µM of the first is lower: 25 to 75% for the first, greater than 750% for the second.

Compared with `COCC1CCC(N2CC(c3ccc(-c4ccc(-c5cc(OC)c6nn(C)cc6c5)cc4O)nn3)C2)CC1` (stereo not drawn) [Compound 179], `COc1cc(-c2ccc(-c3ccc(C4CN(C5CCC(OC)CC5)C4)nn3)c(O)c2)cc2cn(C)nc12` (stereo not drawn) [Compound 144] is higher in Emax at 5 µM: 25 to 75% for the first, greater than 750% for the second.

`COc1cc(-c2ccc(-c3ccc(C4CN(C5CC(C)OC5C)C4)nn3)c(O)c2)cc2cn(C)nc12` (stereo not drawn) [Compound 177] and `COC1CC(N2CC(c3ccc(-c4ccc(-c5cc(F)c6nc(C)cn6c5)cc4O)nn3)C2)C1` (stereo not drawn) [Compound 103] fall in the same range of Emax at 5 µM: 25 to 75% for the first, 25 to 75% for the second.

Work on `Cc1cn2cc(-c3ccc(-c4ccc(C5CN(C6CCN(C)CC6)C5)nn4)c(O)c3)cc(F)c2n1` [Compound 75] yielded an Emax at 5 µM of 25 to 75%.

same assay, conditions: Homo sapiens; HTT mini-gene firefly luciferase reporter transiently transfected into HEK293 cells

`Cc1cc(-c2ccc(-c3ccc(C4CN(C5CCOCC5)C4)nn3)c(O)c2)nc2cn(C)nc12` [Compound 61, 5-{2,7-dimethyl-2H-pyrazolo[4,3-b]pyridin-5-yl}-2-{6-[1-(oxan-4-yl)azetidin-3-yl]pyridazin-3-yl}phenol] and `CCN1CC(c2ccc(-c3ccc(-c4cc(C)c5nn(C)cc5n4)cc3O)nn2)C1` [Compound 62, 5-{2,7-dimethyl-2H-pyrazolo[4,3-b]pyridin-5-yl}-2-[6-(1-ethylazetidin-3-yl)pyridazin-3-yl]phenol] cannot be ordered by EC50: no less than 1000 nM for the first, 500 to 1000 nM for the second.

First: CCN1CC(c2ccc(-c3ccc(-c4cc(F)c5nc(C)cn5c4)cc3O)nn2)C1 [Compound 17, 2-[6-(1-ethylazetidin-3-yl)pyridazin-3-yl]-5-{8-fluoro-2-methylimidazo[1,2-a]pyridin-6-yl}phenol]
Second: CCN1CC(c2ccc(-c3ccc(-c4cc(C)c5nc(C)cn5n4)cc3O)nn2)C1 [Compound 42, 5-{2,8-dimethylimidazo[1,2-b]pyridazin-6-yl}-2-[6-(1-ethylazetidin-3-yl)pyridazin-3-yl]phenol]
The EC50 of the first is lower: 50 to 500 nM for the first, no less than 1000 nM for the second. The first is the more potent here.

Compared with `CCN1CC(c2ccc(-c3ccc(-c4cc(OC)c5nn(C)cc5c4)cc3O)nn2)C1` [Compound 48, 2-[6-(1-ethylazetidin-3-yl)pyridazin-3-yl]-5-(7-methoxy-2-methyl-2H-indazol-5-yl)phenol], `CCN1CC(c2ccc(-c3ccc(-c4cc(OC)c5nn(C)cc5n4)cc3O)nn2)C1` [Compound 66, 2-(6-(1-ethylazetidin-3-yl)pyridazin-3-yl)-5-(7-methoxy-2-methyl-2H-pyrazolo[4,3-b]pyridin-5-yl)phenol hydrochloride] is higher in EC50: 50 to 500 nM for the first, no less than 1000 nM for the second. The first is the more potent here.

First: CCN1CC(c2ccc(-c3ccc(-c4cc5cn(C)nc5c(OC)n4)cc3O)nn2)C1 [Compound 52, 2-[6-(1-ethylazetidin-3-yl)pyridazin-3-yl]-5-{7-methoxy-2-methyl-2H-pyrazolo[3,4-c]pyridin-5-yl}phenol]
Second: CCN1CC(c2ccc(-c3ccc(-c4cc5cn(C)nc5cn4)cc3O)nn2)C1 [Compound 46, 2-[6-(1-ethylazetidin-3-yl)pyridazin-3-yl]-5-{2-methyl-2H-pyrazolo[3,4-c]pyridin-5-yl}phenol]
The EC50 of the first is lower: 50 to 500 nM for the first, 500 to 1000 nM for the second. The first is the more potent here.

First: CN1CC(c2ccc(-c3ccc(-c4ccc5nn(C)cc5c4)cc3O)nn2)C1 [Compound 19, 5-(2-methyl-2H-indazol-5-yl)-2-[6-(1-methylazetidin-3-yl)pyridazin-3-yl]phenol]
Second: Cn1cc2cc(-c3ccc(-c4ccc(C5CNC5)nn4)c(O)c3)ccc2n1 [Compound 16, 2-[6-(azetidin-3-yl)pyridazin-3-yl]-5-(2-methyl-2H-indazol-5-yl)phenol]
The EC50 of the first is higher: no less than 1000 nM for the first, 50 to 500 nM for the second. The second is the more potent here.

First: Cc1cn2cc(-c3ccc(-c4ccc(C5CNC5)nn4)c(O)c3)cc(C(F)(F)F)c2n1 [Compound 5, 2-[6-(azetidin-3-yl)pyridazin-3-yl]-5-[2-methyl-8-(trifluoromethyl)imidazo[1,2-a]pyridin-6-yl]phenol]
Second: Cc1cn2cc(-c3ccc(-c4ccc(C5CNC5)nn4)c(O)c3F)cc(F)c2n1 [Compound 10, 6-[6-(azetidin-3-yl)pyridazin-3-yl]-2-fluoro-3-{8-fluoro-2-methylimidazo[1,2-a]pyridin-6-yl}phenol]
The EC50 of the first is higher: 50 to 500 nM for the first, less than 50 nM for the second.

`CCN1CC(c2ccc(-c3ccc(-c4ccn5nc(C)cc5c4)cc3O)nn2)C1` [Compound 25, 2-[6-(1-ethylazetidin-3-yl)pyridazin-3-yl]-5-{2-methylpyrazolo[1,5-a]pyridin-5-yl}phenol] and `Cc1cc2cc(-c3ccc(-c4ccc(C5CN(C)C5)nn4)c(O)c3)ccn2n1` [Compound 21, 2-[6-(1-methylazetidin-3-yl)pyridazin-3-yl]-5-{2-methylpyrazolo[1,5-a]pyridin-5-yl}phenol] cannot be ordered by EC50: no less than 1000 nM for the first, no less than 1000 nM for the second.
